# Residues, ends and D or L forms follow the SMILES beside them.
# Columns and labels:
# [1] = Circular dichroism spectroscopy; format: physicochemical; conditions: 1 mg/ml in phosphate buffered saline
# Protocol: The conformational properties of the polypeptides were investigated to elucidate any secondary structure that might be necessary for polypeptide immunoreaction with human anti-EBNA antibodies. The polypeptides were dissolved at a concentration of 1 mg/ml in phosphate-buffered saline (PBS). Spectra were taken using 1 ml samples in a Cary 61 spectropolarimeter (Cary Instruments, Applied Physics Corp., Monrovia, Calif.) interfaced and automated with a Digital Equipment Corporation 11/02 computer (Digital Equipment Corporation, Maynard, Mass.).
# anti-EBNA antibodies = test: ELISA with polypeptide as solid phase antigen, anti-polypeptide activity of sera (OD405); format: binding, human; conditions: for OD405 × 10^3 obtained with Patient Antibodies to peptide: serum 1:20
# Protocol: Briefly, microtiter wells (Costar, #3590, Cambridge, MA) were typically coated with individual polypeptides as antigens by adding 100 microliters (ul) of BBS [10 millimoler (mM) sodium borate (pH 8.3), 150 mM NaCl] containing polypeptide at a concentration of 10 micrograms per milliliter (ug/ml). Contact between the wells and antigen-containing solution was maintained for a predetermined time, typically 15 minutes, and at 20 degrees C., to form an antigen-coated solid phase. The solid and liquid phases were separated and the wells were washed three times with BBS.
# Non-specific binding sites were blocked by admixing 200 microliters of 1% bovine serum albumin (BSA) in each well to form another solid/liquid phase admixture, and maintaining that solid/liquid phase admixture for 30 minutes, at 20 degrees C. The phases were separated and excess, unbound BSA was removed by washing three times with BBS.
# The antibodies in human sera that immunoreacted with an adsored polypeptide were detected using an indicating means comprising alkaline phosphatase-conjugated goat anti-human Ig antibody (Tago, Burlington, Calif.). The antibodies in rabbit sera that immunoreacted with an adsorbed polypeptide were detected using an indicating means comprising alkaline phosphatase-conjugated goat anti-rabbit Ig antibody (Kirkegard & Perry Laboratories, Inc., Gaithersburg, MD). In either instance, 100 microliters of the indicating antibody diluted 1:300 in BBS were added per well to form a further solid/liquid phase composition. This solid-liquid phase composition was maintained for a predetermined time, one hour, for the formation of a reaction product between the human antibodies bound to the solid phase and the indicating means, and at 20 degrees C. The phases were separated, and the solid phase was washed 3 times with BBS.
# Alkaline phosphatase-conjugated antibody bound to polypeptide specific antibody was detected by spectrophotometrically measuring the enzymatic hydrolysis of p-nitrophenyl phosphate to p-nitrophenol. Briefly, 100 microliters of p-nitrophenyl phosphate [1 milligram per milliliter in 2 mM MgCl 2, (pH 9.8), 50 mM sodium carbonate] were added to each well. The enzymatic reaction was allowed to proceed 1 hour and then the optical density at 405 nm was determined in a [sequence] spectrophotometer available from Flow Laboratories, Inglewood, Calif.
# [2] = test system: rabbit anti-polypeptide antibody to polypeptide P62; test: Competition ELISA with rabbit anti-polypeptide P62 antibody on solid phase P62; format: binding; conditions: antibody first incubated with competing polypeptide
# Protocol: Anti-peptide antibody binding and inhibition studies were carried out by an enzyme-linked immunosorbent assay (ELISA) as described below.
# Contact between the wells and antigen-containing solution was maintained for a predetermined time, typically 15 minutes, and at 20 degrees C., to form an antigen-coated solid phase. The solid and liquid phases were separated and the wells were washed three times with BBS.
# Rabbit and human sera (body sample aliquots) were assayed for anti-polypeptide activity by adding 100 microliters of a serum diluted 1:20 in BBS per well to form a solid/liquid phase composition. Contact between the diluted sera and the antigen-coated solid phase was maintained for a predetermined time such as 1 hour, and at 20 degrees C., for an immunoreactant to form. The solid and liquid phases were separated, and the solid phase; i.e., antigen-coated, immunoreactant-containing wells, was then washed three times with BBS.
# EBNA = test: Immunoblot of WI-L2 whole cell extracts with rabbit antipeptide antisera, blocking by polypeptide; format: binding, Epstein-Barr virus
# Protocol: Exemplary receptor molecules containing antibody combining sites of this invention raised in rabbits to the polypeptides shown in Table 1 were studied using the immunoblotting procedures of Towbin, et. al., Proc. Natl. Acad. Sci., U.S.A., 76:4350-4354 (1979) and Billings, et. al., Proc. Natl. Acad. Sci., U.S.A., 80:7104-7108 (1983). Further details are provided in the Materials and Methods section (III).
# Extracts of EBNA producing and non-producing (control) cells were prepared to determine if receptor molecules of this invention were useful for diagnosing EBNA expression. Cells from cultures described hereinabove were washed in phosphate-buffered saline (PBS; 150 mM NaCl, 10 mM sodium phosphate, pH 7.4) containing 0.2 mM phenylmethylsulfonyl fluoride, swollen for 5 minutes in reticulocyte standard buffer (RSB; 10 mM NaCl, 10 mM Tris-HCl, pH 7.4, 1.5 mM MgCl2, 0.2 mM phenylmethylsulfonyl fluoride), and lysed by sonication in 3-5 volumes of RBS adjusted to 0.2-0.35 molar (M) NaCl. After 30 minutes on ice, the sonicate was centrifuged at 10,000×g for 15 minutes to remove cellular debris.
# Cell extracts obtained above were assayed for EBNA using human sera known to contain anti-EBNA antibodies or exemplary receptor molecules of this invention. The extracts were either concentrated by precipitation with 2 volumes of ethanol at -20 degrees C. for about 18 hours, and were then dissolved in sample buffer [SB; 10% glycerol, 2% 2-mercaptoethanol, 1% sodium dodecyl sulfate (SDS), 0.002% bromphenol blue, 40 mM Tris-HCl (pH 7.4)] or diluted 1:6 in sample buffer for SDS-polyacrylamide gel electrophoresis (SDS-PAGE). 7.5% Polyacrylamide gels were cast and run according to the procedure of Laemmli, Nature, […] (1970), applying 50 to 200 micrograms of total protein per lane. […]
# Anti-peptide antibodies bound to EBNA protein were detected by reacting the blots with an indicating means. […]
smiles,measurement,setting,value
"C[C@H](NC(=O)CNC(=O)CNC(=O)[C@H](C)NC(=O)CNC(=O)[C@H](C)NC(=O)CNC(=O)CNC(=O)CN)C(=O)NCC(=O)N[C@@H](C)C(=O)NCC(=O)NCC(=O)NCC(=O)NCC(=O)N[C@@H](CCCNC(=N)N)C(=O)O [Polypeptide P60, H--Gly--Gly--Gly--Ala--Gly--Ala--Gly--Gly--Ala--Gly--Ala--Gly--Gly--Gly--Gly--Arg--OH] (H-GGGAGAGGAGAGGGGR-OH)",Conformation by circular dichroism spectrum,[1],very similar spectra
same,Reactivity of sera of EBV non-immune donors to polypeptide,anti-EBNA antibodies; 27 EBV non-immune (VCA-) donors,None of the sera displayed significant reactivity
same,Number of anti-EBNA positive sera positive against (bound to) polypeptide,"anti-EBNA antibodies; 91 ACIF anti-EBNA positive sera, 1:20 dilution",91
same,Titer of PSS patients versus normals,anti-EBNA antibodies; Progressive Systemic Schlerosis patients,relatively higher average titer
same,Reaction of VCA+ sera with polypeptide,"anti-EBNA antibodies; clinically normal VCA+ individuals, two dilutions",all of the VCA^+ individuals were positive
same,Reaction of VCA- sera with polypeptide,anti-EBNA antibodies; panel of 19 VCA- sera,None of the VCA^- sera were found to react positively
same,OD405 × 10^3 obtained with Patient Antibodies to peptide,anti-EBNA antibodies; MV post-mononucleosis,162 OD405 × 10^3
same,OD405 × 10^3 obtained with Patient Antibodies to peptide,anti-EBNA antibodies; MV pre-mononucleosis,72 OD405 × 10^3
same,OD405 × 10^3 obtained with Patient Antibodies to peptide,anti-EBNA antibodies; SB post-mononucleosis,115 OD405 × 10^3
same,OD405 × 10^3 obtained with Patient Antibodies to peptide,anti-EBNA antibodies; SB pre-mononucleosis,51 OD405 × 10^3
same,OD405 × 10^3 obtained with Patient Antibodies to peptide,anti-EBNA antibodies; VCA+ Normal 1,154 OD405 × 10^3
same,OD405 × 10^3 obtained with Patient Antibodies to peptide,anti-EBNA antibodies; VCA+ Normal 2,145 OD405 × 10^3
same,OD405 × 10^3 obtained with Patient Antibodies to peptide,"anti-EBNA antibodies; VCA- Normals (n = 27), average ± one standard deviation",45 ± 18 OD405 × 10^3
same,Inhibition of binding of anti-polypeptide P62 to polypeptide P62 in the solid phase,[2],81%
same,Immunoreactivity of anti-P62 serum with the EBNA band after preincubation with polypeptide,"EBNA; serum 1:10, 40 ug/ml polypeptide P60, one hour",inhibited
same,Recognition of EBNA by anti-P60 serum after preincubation with polypeptide,"EBNA; serum 1:50, 40 ug/ml polypeptide, one hour",inhibited

# — US5122448A, “Assay of anti-Epstein-Barr virus nuclear antigen antibodies with synthetic polypeptides” (Scripps Clinic and Research Foundation, priority 1990, dated 1992)
